Source: US11510933B2, “Use of Pulsatilla chinensis extract in the preparation of drugs for treatment of viral and/or bacterial diseases” (priority 2018, dated 2022)
Marks after values point to notes of the source that are not given here.

Key:
canine distemper = test: treatment of canine distemper; assay type: in vivo, dogs; conditions: for Cure / Death: 14 days, 10 dogs treated
Method: Anemoside B4 injection prepared in example 3, with a concentration of 50 mg/mL.
Dogs suffering from canine distemper are cases received by various pet hospitals in Chengdu.
According to the clinical symptoms, canine distemper can be divided into early, middle and late stages.
The vomit is mucus or yellow liquid, while the stool is dark brown or covered with mucus. As the progress of the disease course, dogs with canine distemper often develop secondary bacterial infections due to their decreased resistance.
Anemoside B4 injection was intravenously injected, 2 mL/time in low-dose group, 4 mL/time in medium-dose group, 8 mL/time in high-dose group, once a day; anemoside B4 injection was intramuscularly injected, 1 mL/time in low-dose group, 2 mL/time in the middle-dose group, 4 mL/time in the high-dose group, twice a day; the treatment was kept for 14 days.

[1] = test system: cow clinical endometritis; test: treatment of cow clinical endometritis; assay type: in vivo, cows; conditions: n = 10
Method: Anemoside B4 injection prepared in example 3, with a concentration of 50 mg/mL; Anemoside B4 intrauterine injection prepared in example 5, with a concentration of 50 mg/mL.
Positive drug: doxycycline hydrochloride intrauterine injection (24 g/injection, produced by Zhengzhou Bairui Animal Pharmaceutical Co., Ltd., batch No.: 170901).
130 cows with disease were randomly divided into 13 groups, 10 cows for each group.
The cows selected in this experiment were all those with clinical endometritis. During the experiment, the temperature, spirit and diet of the cows were normal.
Administration by […] injection: Administrating anemoside B4 by intramulscular injection, twice per day, one in the morning and another in the evening, for successive four days;
Administration by intrauterine infusion: administrating anemoside B4 and positive drug doxycycline hydrochloride by intrauterine infusion, once every other day, for 4 times.
A blank control group was set up in different administration routes, and the same dose of normal saline was administered.

[2] = high-dose, intramuscular injection 4 mL/time (50 mg/mL), twice a day
[3] = high-dose, intravenous injection 8 mL/time (50 mg/mL), once a day
[4] = low-dose, intramuscular injection 1 mL/time (50 mg/mL), twice a day
[5] = low-dose, intravenous injection 2 mL/time (50 mg/mL), once a day
[6] = medium-dose, intramuscular injection 2 mL/time (50 mg/mL), twice a day
[7] = medium-dose, intravenous injection 4 mL/time (50 mg/mL), once a day
[8] = high-dose, intramuscular injection 30 mL/time (50 mg/mL), twice per day, 4 days
[9] = high-dose, intrauterine infusion 30 mL/time (50 mg/mL), once every other day, 4 times
[10] = high-dose, intravenous injection 60 mL/time (50 mg/mL)
[11] = low-dose, intramuscular injection 10 mL/time (50 mg/mL), twice per day, 4 days
[12] = low-dose, intrauterine infusion 10 mL/time (50 mg/mL), once every other day, 4 times
[13] = low-dose, intravenous injection 20 mL/time (50 mg/mL)
[14] = medium-dose, intramuscular injection 20 mL/time (50 mg/mL), twice per day, 4 days
[15] = medium-dose, intrauterine infusion 20 mL/time (50 mg/mL), once every other day, 4 times
[16] = medium-dose, intravenous injection 40 mL/time (50 mg/mL)

## C=C(C)[C@@H]1CC[C@]2(C(=O)O[C@@H]3O[C@H](CO[C@@H]4O[C@H](CO)[C@@H](O[C@@H]5O[C@@H](C)[C@H](O)[C@@H](O)[C@H]5O)[C@H](O)[C@H]4O)[C@@H](O)[C@H](O)[C@H]3O)CC[C@]3(C)[C@H](CC[C@@H]4[C@@]5(C)CC[C@H](O[C@@H]6OC[C@H](O)[C@H](O)[C@H]6O[C@@H]6O[C@@H](C)[C@H](O)[C@@H](O)[C@H]6O)[C@@](C)(CO)[C@@H]5CC[C@]43C)[C@H]12 [anemoside B4]
Canine distemper; dogs
  therapeutic effect on canine distemper (conclusion in words): a better therapeutic effect on canine distemper
Canine distemper; [2]
  Cure: 5 dog
  Death: 5 dog
Canine distemper; [3]
  Cure: 6 dog
  Death: 4 dog
Canine distemper; [4]
  Cure: 3 dog
  Death: 7 dog
Canine distemper; [5]
  Cure: 4 dog
  Death: 6 dog
Canine distemper; [6]
  Cure: 4 dog
  Death: 6 dog
Canine distemper; [7]
  Cure: 5 dog
  Death: 5 dog
[1]; [8]
  Mean time of first estrus after medication: 25 ± 5.5 days
  Oestrus rate: 65* %
  Pregnancy rate in three estrous periods after delivery: 56* %
[1]; [9]
  Mean time of first estrus after medication: 23 ± 6.2 days
  Oestrus rate: 78* %
  Pregnancy rate in three estrous periods after delivery: 75* %
[1]; [10]
  Mean time of first estrus after medication: 24 ± 5.2 days
  Oestrus rate: 68* %
  Pregnancy rate in three estrous periods after delivery: 58* %
[1]; [11]
  Mean time of first estrus after medication: 27 ± 5.8 days
  Oestrus rate: 54%
  Pregnancy rate in three estrous periods after delivery: 42%
[1]; [12]
  Mean time of first estrus after medication: 25 ± 5.4 days
  Oestrus rate: 64%
  Pregnancy rate in three estrous periods after delivery: 52%
[1]; [13]
  Mean time of first estrus after medication: 27 ± 6.4 days
  Oestrus rate: 57%
  Pregnancy rate in three estrous periods after delivery: 46%
[1]; [14]
  Mean time of first estrus after medication: 26 ± 4.6 days
  Oestrus rate: 60%
  Pregnancy rate in three estrous periods after delivery: 52%
[1]; [15]
  Mean time of first estrus after medication: 24 ± 7.3 days
  Oestrus rate: 74* %
  Pregnancy rate in three estrous periods after delivery: 70* %
[1]; [16]
  Mean time of first estrus after medication: 26 ± 4.3 days
  Oestrus rate: 63%
  Pregnancy rate in three estrous periods after delivery: 52%
